Test results reported in ChEMBL document CHEMBL1201862, “PubChem BioAssay data set” (2004).
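Cells were grown in 96-well plates and exposed to each compound for 48 hours at five concentrations; endpoints were interpolated linearly between bracketing concentrations, or set to the highest concentration if not reached. GI50: concentration for 50% inhibition of growth.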 Active and inactive are the calls of the source. Cut-off read from the data, not from the text of the source: active = GI50 up to about 1.1 µM and inactive = higher.

Key:
Assay in all cases: NCI tumour cell line growth inhibition, 48 h
[1] = system: SN12C
[2] = system: EKVX
[3] = system: SK-MEL-2
[4] = system: NCI-H226
[5] = system: TK-10
[6] = system: OVCAR-5
[7] = system: RXF 393
[8] = system: CCRF-CEM
[9] = system: OVCAR-8
[10] = system: UO-31
[11] = system: KM12
[12] = system: CAKI-1
[13] = system: SNB-75
[14] = system: OVCAR-3
[15] = system: HOP-62
[16] = system: U-251

Measured: GI50

COC1(OC)CCN(Cc2ccccc2)C1=O
inactive: [1] 10.4 µM | [2] 16 µM | [3] 15.4 µM | [4] 18.7 µM | [5] 16 µM | [6] 17.7 µM | [7] 12.3 µM | [8] 2.25 µM | [9] 6.44 µM | [10] 10.9 µM | [11] 17.4 µM | [12] 3.89 µM | [13] 16.2 µM | [14] 11.4 µM | [15] 20.6 µM | [16] 17.3 µM

NC(=O)NOCC1NC(=O)NC1=O (stereo not given)
inactive: [1] > 100 µM | [2] > 100 µM | [3] > 100 µM | [4] > 100 µM | [5] > 100 µM | [6] > 100 µM | [7] > 100 µM | [8] 4.16 µM | [9] > 100 µM | [10] > 100 µM | [11] > 100 µM | [12] > 100 µM | [13] > 100 µM | [14] > 100 µM | [15] > 100 µM | [16] > 100 µM

CC(C)C(=O)OCC1CCCN2CCCCC12 (stereo not given)
inactive: [1] > 100 µM | [2] > 100 µM | [3] > 100 µM | [4] > 100 µM | [5] > 100 µM | [6] > 100 µM | [7] > 100 µM | [8] 51.3 µM | [9] > 100 µM | [10] 62.7 µM | [11] > 100 µM | [12] > 100 µM | [13] > 100 µM | [14] > 100 µM | [15] > 100 µM | [16] > 100 µM

Cc1cc(C)c(P2C(=C(O[Si](C(C)C)(C(C)C)C(C)C)C(C)(C)C)C2(c2ccccc2)c2ccccc2)c(C)c1 (stereo not given)
inactive: [1] > 100 µM | [2] > 100 µM | [3] > 100 µM | [4] > 100 µM | [5] > 100 µM | [6] > 100 µM | [7] > 100 µM | [8] > 100 µM | [9] > 100 µM | [10] 76.9 µM | [11] 94 µM | [12] > 100 µM | [13] 88.1 µM | [14] > 100 µM | [15] > 100 µM | [16] > 100 µM

COC(=O)[C@@H](O)[C@]1(C(=O)OC)C2O[C@@H](OC)[C@@H]1CCCCCC[C@H]2O
inactive: [1] > 100 µM | [2] > 100 µM | [3] 51.5 µM | [4] > 100 µM | [5] > 100 µM | [6] > 100 µM | [7] > 100 µM | [8] > 100 µM | [9] > 100 µM | [10] > 100 µM | [11] > 100 µM | [12] > 100 µM | [13] > 100 µM | [14] > 100 µM | [15] > 100 µM | [16] > 100 µM
